Source: US9649268B2, “Glucuronolactone derivatives as self-tanning substances” (MERCK PATENT GMBH, priority 2011, dated 2017)

What was measured:
[1] = Liquid skin model (reaction with L-lysine, L*a*b* values); details: after 24 hours; for L* / a* / b*: 1 mmol compound + 1 mmol L-lysine, phosphate-buffered water (pH=7)/ethylene glycol
Protocol: The mixture is subsequently made up to the mark with a mixture of 6 ml of phosphate-buffered water (pH=7) and 94 ml of ethylene glycol. The reaction is observed with vigorous stirring, and the L*a*b* values are determined after 24 hours.

[2] = Colouring test on merino wool balls; details: 1 mmol in 100 ml buffer (pH 7)/ethylene glycol 6/94, RT, 24 h, then washed and dried
Protocol: 1 mmol of each of DHA and the glucuronolactone derivatives are weighed out into a 100 ml conical flask with ground-glass joint:
(2) Glucuronolactone: 176 mg
(3) Compound (Ia): 216 mg
(4) Compound (Ic): 264 mg
A merino wool ball with the size of a grape and a magnetic stirrer are then added to each conical flask.
A mixture of 6% by vol. of buffer (ph7) and 94% by vol. of ethylene glycol is then prepared, 100 ml of this mixture are added to each conical flask and stirred at RT for 24 h.
After 24 h, the wool balls are washed firstly with water, then with warm washing-powder solution and again with water and dried.
This colouring result can also be applied to hair, since merino wool, like hair, is built up from proteins (keratins) and the outermost layer is in each case the cuticle.

[3] = Stability/odour of test formulations on storage; type: physicochemical; details: formulation with 5% active compound (mixture: 5% DHA + 1% compound Ia), stored at 40° C. for 8 weeks
Protocol: In order to compare the odour and stability of glucuronolactone, glucuronolactone acetonide of the formula (Ia), DHA and a combination in a formulation, 5 formulations are prepared: one without active compound as placebo, one with 5% of glucuronolactone, one with 5% of compound (Ia), one with 5% of DHA and one with 5% of DHA+1% of compound (Ia) (denoted by “active compound” in the recipe).
The following recipe is used:
Sources of Supply: (1) Sasol Germany GmbH, (2) Cognis GmbH, (3) Hansen&Rosenthal KG, (4) Merck KGaA/Rona®, (5) Alfa Aesar Preparation of the Formulations: […]
Heat phase A, heat phase B, prepare phase C on a magnetic stirrer (first introduce water, then add thickener), then homogenise phase C with phase B using an Ultra-Turrax and at the same time slowly add phase A. Subsequently add phase D and likewise homogenise well.
In the case of the 5th cream (with DHA and glucuronolactone acetonide), adjust the water proportion correspondingly.

[4] = test system: histological explants from the lower abdomen tissue of a person; test: Ex-vivo study on skin explants, chromametric measurement (ITA); design: species or system human; details: for Day 5 (ITA value): 30 μl on 5 consecutive days, 2 h
Protocol: 24 histological explants having an average diameter of 10 mm are prepared from the lower abdomen tissue of a person. The pieces of tissue are kept in BEM medium (BIO-EC's explants medium) at 37° C. in a humid atmosphere comprising 5% of CO2.
The tissue is divided into 8 batches of 3 explants each:
30 μl of the substance solutions are applied on 5 consecutive days using a round filter paper and left to act for 2 h. On days 0, 5 and 8, tissue sections with a thickness of 5 μm are prepared from the explants. These sections are investigated morphologically and measured chromametrically.
The colour measurements are carried out using a Minolta CR-300 Chroma-meter, and the L, a and b values are read off correspondingly on the instrument.
Principle of the Chromametric Measurement:
The following parameters are set:
In 1931, a test series was carried out by the CIE (Commision Internationale de L'Eclairage), where the “2-degree standard observer” was defined. A colour area is present here which is viewed at a viewing angle of 2 degrees. This viewing angle is used as standard in the chromametric measurement. • Irradiation source D65, corresponding to daylight • Region of the measurement: 3 mm • Parameters used: L* a* b*
The sample is placed on the bearing rail with the epidermis facing downwards. The irradiation is carried out from the underside through the area indicated (3 mm).
In the colorimetric determinations <<L a b>>, the L value determines the contrast of the skin. If the L value drops, the skin appears darker.
ITA is defined as arctan g[(L−50)/b]. If the ITA index increases, the skin appears paler.

| Structure (SMILES) | L* [1] | a* [1] | b* [1] | L values compared with erythrulose (darker colour) [1] | colouration of wool samples compared with the untreated sample [2] | odour of the formulation [3] | Day 5 (ITA value) ([4]; 1% solution) [%] | Day 5 (ITA value) ([4]; 4% solution) [%] | colour effect ([4]; identical concentration in the test formulation) | melting point [°C] |
| --- | --- | --- | --- | --- | --- | --- | --- | --- | --- | --- |
| CC1(C)OC2OC3C(O)C(=O)OC3C2O1 (stereo not shown) [Compound Ia, glucuronolactone acetonide] | 82.6 | 29.4 | 103.7 | lower L values than erythrulose | yellow colouration | produce no odour | −2 | −5 | comparable to erythrulose | – |
| O=C[C@H](O)[C@H]1OC(=O)[C@@H](O)[C@H]1O [Glucuronolactone] | 96.1 | 4.3 | 45.9 | – | no colouration | produce no odour | −3 | – | – | – |
| COC1OC2C(O)C(=O)OC2C1O (stereo not shown) [Compound Ib] | 81.1 | 30.8 | 103.8 | lower L values than erythrulose | – | – | – | – | – | – |
| COc1ccc(C2OC3OC4C(O)C(=O)OC4C3O2)cc1 [Compound Ie, 1,2-O—(R,S)-(4-Methoxybenzylidene)-α-D-glucofuranurono-6,3-lactone] | 76.4 | 39.1 | 106.7 | lower L values than erythrulose | – | – | – | – | – | – |
| O=C(CO)[C@H](O)CO [Erythrulose, reference compound] | 92.6 | 4.8 | 35.8 | – | – | – | – | −5 | – | – |
| O=C1OC2C3OC(c4ccccc4)OC3OC2C1O [Compound Ic, 1,2-O—(R,S)-(Benzylidene)-α-D-glucofuranurono-6,3-lactone] | 68.0 | 55.2 | 109.6 | lower L values than erythrulose | yellow colouration | – | – | – | – | – |
| O=C(CO)CO [DHA, 1,3-dihydroxyacetone, reference compound] | 46.7 | 27.2 | 69.4 | – | no colouration | developed the typical DHA odour | −15 | – | – | – |
| COc1cc(C2OC3OC4C(O)C(=O)OC4C3O2)ccc1O [Compound Ig, 1,2-O—(R,S)-(4-hydroxy-3-methoxybenzylidene)-α-D-glucofuranurono-6,3-lactone] | 80.9 | 32.0 | 100.0 | lower L values than erythrulose | – | – | – | – | – | 82 |
